Measurements from patent US11077194B2, “Nitric oxide releasing pharmaceutical compositions” (Novan, Inc., priority 2012, dated 2021).
Marks after values point to notes of the source that are not given here.

Tested on: oxazolone-induced ear swelling
Assay: Oxazolone-induced ear swelling assay (model of allergic contact dermatitis)
Assay type: in vivo, BALB/c mice
Settings: TOP
Procedure: Groups of 5 BALB/c male mice weighing 22±2 g were used. The animals were sensitized by application of oxazolone (100 μL, 1.5% in acetone) to their preshaved abdominal surface. Seven days later, test substances (20 mg/ear) and vehicle (20 μL/ear) were applied topically to the anterior and posterior surfaces of the right ear 30 min before and 15 min after oxazolone (1%, 20 μL/ear) challenge. Ear swelling was measured with a Dyer model micrometer gauge at 24 hours after oxazolone challenge as an index of inflammation. Ear edema was calculated by subtracting the thickness of the left ear (normal control) from the right ear (treated ear). Percent inhibition was calculated according to the formula: (Ic−It)/Ic×100, where Ic and It refers to increase of ear thickness (mm) in control and treated mice, respectively. One-way ANOVA and Dunnett's test were used to determine statistical significance between vehicle control and treated groups. Significance is set at P<0.05.
Test articles (0.2% and 2% Nitricil™ NVN1 Ointment) described in Example 6 were evaluated for possible anti-inflammatory activity in the oxazolone-induced ear swelling assay in BALB/c mice, a model of allergic contact dermatitis. Test substances and vehicles were each administered topically (TOP) at 30 minutes before and 15 minutes after challenge with the second application of oxazolone.
The test system used was a 7-day oxazolone-induced ear swelling assay. Oxazolone-induced ear swelling is useful as a model of inflammation. […] Ear swelling was measured with a Dyer model micrometer gauge at 24 hours after oxazolone challenge as an index of inflammation. Ear edema was calculated by subtracting the thickness of the left ear (normal control) from the right ear (treated ear) (Table 18). […]
Percent inhibition was calculated according to the formula: (Ic−It)/Ic×100, where Ic and It refer to increase of ear thickness (mm) in control and treated mice, respectively. […]

C[C@@H]1C[C@H]2[C@@H]3CCC4=CC(=O)C=C[C@]4(C)[C@@]3(F)[C@@H](O)C[C@]2(C)[C@@]1(O)C(=O)CO [Dexamethasone]
Ear Swelling % Inhibition (vs. Vehicle A, acetone/ethanol 1/1) (Example 7 study, ointments 20 mg/ear × 2, dexamethasone 0.3 mg/ear × 2, 24 hours after challenge): 85* % | % inhibition of oxazolone-induced ear swelling vs acetone/ethanol vehicle (Example 9 study, ointments 20 mg/ear × 2, dexamethasone 0.1 mg/ear × 2): 86% | Net Swelling on Right Ear (Mean ± SEM) (Example 9 study, ointments 20 mg/ear × 2, dexamethasone 0.1 mg/ear × 2, 24 hours after challenge): 3.2 ± 0.4 × 0.01 mm
